Experimental data from patent US10701939B2, “Aqueous suspension agrochemical composition” (KUMIAI CHEMICAL INDUSTRY CO., LTD., priority 2015, dated 2020).

Test system: wheat powdery mildew (Erysiphe graminis)
Assay: Reference Example: efficacy reinforcement by adjuvant, control of wheat powdery mildew on potted wheat
Format: in vivo
Conditions: pyribencarb water-dispersible granules 30 g/ha, no adjuvant added (0 ppm); day 7 after inoculation
Experimental: Pyribencarb (40 parts), sodium lignin sulfonate (5 parts), polyoxyethylene alkyl aryl ether (1 part), calcium carbonate (54 parts) and water (10 parts) were mixed, kneaded, extruded, and granulated, and the resultant granules were dried in a fluidized bed dryer to obtain water-dispersible granules. Thus obtained water-dispersible granules of pyribencarb were adjusted so as to have a predetermined concentration, and the adjuvant shown in the following Table 2 was added to the diluted solution to a concentration of 100 ppm to prepare a spray solution. In addition, a spray solution containing an adjuvant at a concentration of 100 ppm without containing water-dispersible granules of pyribencarb were separately prepared. Ten wheat seeds (variety: Norin No. 61) were sowed in a plastic cup having a diameter of 5.5 cm, and after grown for 7 days in a greenhouse, 25 ml/m^2 (30 g of pyribencarb per 1 ha) was sprayed onto the wheat at 1.5 to 2 leaf stage. After air-drying, conidia of wheat powdery mildew (Erysiphe graminis) were sprayed and inoculated, and the plant was placed in a greenhouse. On day 7 after inoculation, the disease onset area of the first leaves in the pot in the spray solution-treated region and the untreated region were indexed and investigated according to the criteria in Table 1 below. […]

COC(=O)NCc1cc(/C(C)=N/OCc2cccc(C)n2)ccc1Cl [pyribencarb, methyl={2-chloro-5-[(E)-1-(6-methyl-2-pyridylmethoxyimino)ethyl]benzyl}carbamate]
Control effect on wheat powdery mildew (control value): 33.2%
